Several values for one entry are separate records, joined by “and”; a condition that tells them apart may be missing. Identical values can stand only once.
Species on record: Rattus norvegicus
Test: DrugMatrix - Regimen: Daily Repeat
Assay type: toxicity, organism-based, Sprague-Dawley
Parameters: regimen Daily Repeat, gender Male, age 6-8 weeks
Conditions: in vivo, sc, route mini-PUMP - SUBCUTANEOUS, vehicle 100 % SALINE; for ABSOLUTE MONOCYTE / ABSOLUTE SEGMENTED NEUTROPHIL / BASOPHIL / EOSINOPHIL / ERYTHROCYTE COUNT / HEMATOCRIT / HEMOGLOBIN / LEUKOCYTE COUNT / MEAN CORPUSCULAR HEMOGLOBIN / MEAN CORPUSCULAR HEMOGLOBIN CONCENTRATION / MEAN CORPUSCULAR VOLUME / MONOCYTE / NEUTROPHIL / NUCLEATED RED BLOOD CELLS / PLATELET COUNT / ABSOLUTE BASOPHIL / ABSOLUTE EOSINOPHIL / ABSOLUTE LYMPHOCYTE: tissue Blood; for ALBUMIN / ALKALINE PHOSPHATASE / ASPARTATE AMINOTRANSFERASE / BLOOD UREA NITROGEN / CARBON DIOXIDE / CHOLESTEROL / CREATINE PHOSPHOKINASE / CREATININE / GLUCOSE / LACTATE DEHYDROGENASE / PHOSPHORUS / POTASSIUM / SODIUM / TOTAL BILIRUBIN / URIC ACID: tissue Plasma
[1] = 0 mg/kg, 72 h, dose level Control, time 3 day
[2] = 0 mg/kg, 120 h, dose level Control, time 5 day
[3] = 0 mg/kg, […], dose level Control, time 14 day
[4] = 0.5 mg/kg, 72 h, dose level High, time 3 day
[5] = 0.5 mg/kg, 120 h, dose level High, time 5 day
[6] = 0.5 mg/kg, […], dose level High, time 14 day

CC[C@H](C)[C@H](NC(=O)[C@H](Cc1ccc(O)cc1)NC(=O)[C@@H](NC(=O)[C@H](CCCNC(=N)N)NC(=O)[C@@H](N)CC(=O)O)C(C)C)C(=O)N[C@@H](Cc1cnc[nH]1)C(=O)N1CCC[C@H]1C(=O)N[C@@H](Cc1ccccc1)C(=O)O [ANGIOTENSIN II]
ABSOLUTE MONOCYTE [1]: 230 cells/µL and 354 CELLS/uL
ABSOLUTE SEGMENTED NEUTROPHIL [1]: 1658.33 CELLS/uL
BASOPHIL [1]: 0.3% and 0%
EOSINOPHIL [1]: 0.43% and 0.5%
ERYTHROCYTE COUNT [1]: 6.91 x10E6/uL and 6.27 x10E6/uL
HEMATOCRIT [1]: 45.43% and 36.95%
HEMOGLOBIN [1]: 14.37 G/DL and 13.4 G/DL
LEUKOCYTE COUNT [1]: 12.09 x10E3/uL and 16.38 x10E3/uL
MEAN CORPUSCULAR HEMOGLOBIN [1]: 20.8 pg and 21.42 pg
MEAN CORPUSCULAR HEMOGLOBIN CONCENTRATION [1]: 31.67 G/DL and 36.27 G/DL
MEAN CORPUSCULAR VOLUME [1]: 65.83 fL and 59.03 fL
MONOCYTE [1]: 1.83% and 2%
NEUTROPHIL [1]: 15.07% and 10.33%
NUCLEATED RED BLOOD CELLS [1]: 0 /100WBC
PLATELET COUNT [1]: 1299.67 x10E3/uL and 904.67 x10E3/uL
ALBUMIN [1]: 3.83 G/DL and 3.82 G/DL
ALKALINE PHOSPHATASE [1]: 333.67 u/L and 282.33 u/L
ASPARTATE AMINOTRANSFERASE [1]: 68 u/L and 86.83 u/L
BLOOD UREA NITROGEN [1]: 19.33 mg/dL and 20.17 mg/dL
CARBON DIOXIDE [1]: 43 mmol/L and 34.67 mmol/L
CHOLESTEROL [1]: 84.33 mg/dL and 71.5 mg/dL
CREATINE PHOSPHOKINASE [1]: 334.33 u/L
CREATININE [1]: 0.53 mg/dL and 0.2 mg/dL
GLUCOSE [1]: 156.67 mg/dL and 136.83 mg/dL
LACTATE DEHYDROGENASE [1]: 159 u/L
PHOSPHORUS [1]: 9.8 mg/dL and 10.12 mg/dL
POTASSIUM [1]: 5.93 MEQ/L and 5.92 MEQ/L
SODIUM [1]: 146.33 MEQ/L and 147.8 MEQ/L
TOTAL BILIRUBIN [1]: 0.37 mg/dL and 0.2 mg/dL
URIC ACID [1]: 0.73 mg/dL and 1.4 mg/dL
ABSOLUTE SEGMENTED NEUTROPHIL [2]: 3216.67 CELLS/uL
BASOPHIL [2]: 0.2% and 0%
EOSINOPHIL [2]: 0.33% and 0%
ERYTHROCYTE COUNT [2]: 6.81 x10E6/uL and 6.11 x10E6/uL
HEMATOCRIT [2]: 44.33% and 36.22%
HEMOGLOBIN [2]: 13.77 G/DL and 13.18 G/DL
LEUKOCYTE COUNT [2]: 11.2 x10E3/uL and 17.8 x10E3/uL
MEAN CORPUSCULAR HEMOGLOBIN [2]: 20.23 pg and 21.62 pg
MEAN CORPUSCULAR HEMOGLOBIN CONCENTRATION [2]: 31.03 G/DL and 36.42 G/DL
MEAN CORPUSCULAR VOLUME [2]: 65.1 fL and 59.37 fL
MONOCYTE [2]: 2.1% and 1.83%
NEUTROPHIL [2]: 16.43% and 17.67%
NUCLEATED RED BLOOD CELLS [2]: 0 /100WBC
PLATELET COUNT [2]: 1573.33 x10E3/uL and 1311 x10E3/uL
ALBUMIN [2]: 3.87 G/DL and 3.83 G/DL
ALKALINE PHOSPHATASE [2]: 303.67 u/L and 260.33 u/L
ASPARTATE AMINOTRANSFERASE [2]: 72.67 u/L and 76.17 u/L
BLOOD UREA NITROGEN [2]: 17.33 mg/dL and 14.67 mg/dL
CARBON DIOXIDE [2]: 41.33 mmol/L and 31.33 mmol/L
CHOLESTEROL [2]: 74.33 mg/dL and 75 mg/dL
CREATINE PHOSPHOKINASE [2]: 286.67 u/L
CREATININE [2]: 0.47 mg/dL and 0.16 mg/dL
GLUCOSE [2]: 152.33 mg/dL and 152.67 mg/dL
LACTATE DEHYDROGENASE [2]: 147.33 u/L
PHOSPHORUS [2]: 10 mg/dL and 10.97 mg/dL
POTASSIUM [2]: 6.4 MEQ/L and 6 MEQ/L
SODIUM [2]: 146 MEQ/L and 145.52 MEQ/L
TOTAL BILIRUBIN [2]: 0.43 mg/dL and 0.17 mg/dL
URIC ACID [2]: 0.83 mg/dL and 1.27 mg/dL
ABSOLUTE SEGMENTED NEUTROPHIL [3]: 2414 CELLS/uL
NUCLEATED RED BLOOD CELLS [3]: 0.17 /100WBC
CREATINE PHOSPHOKINASE [3]: 262 u/L
ABSOLUTE BASOPHIL [4]: 56.7 cells/µL
ABSOLUTE EOSINOPHIL [4]: 70 cells/µL
ABSOLUTE LYMPHOCYTE [4]: 10900 cells/µL
ABSOLUTE MONOCYTE [4]: 510 cells/µL
BASOPHIL [4]: 0.4%
EOSINOPHIL [4]: 0.5%
ERYTHROCYTE COUNT [4]: 6.47 x10E6/uL
HEMATOCRIT [4]: 44.43%
HEMOGLOBIN [4]: 13.53 G/DL
LEUKOCYTE COUNT [4]: 14.39 x10E3/uL
MEAN CORPUSCULAR HEMOGLOBIN [4]: 20.97 pg
MEAN CORPUSCULAR HEMOGLOBIN CONCENTRATION [4]: 30.53 G/DL
MEAN CORPUSCULAR VOLUME [4]: 68.7 fL
MONOCYTE [4]: 3.57%
NEUTROPHIL [4]: 18.63%
PLATELET COUNT [4]: 1360 x10E3/uL
ALBUMIN [4]: 3.77 G/DL
ALKALINE PHOSPHATASE [4]: 339 u/L
ASPARTATE AMINOTRANSFERASE [4]: 71.67 u/L
BLOOD UREA NITROGEN [4]: 19 mg/dL
CARBON DIOXIDE [4]: 41.33 mmol/L
CHOLESTEROL [4]: 91.67 mg/dL
CREATINE PHOSPHOKINASE [4]: 392.67 u/L
CREATININE [4]: 0.5 mg/dL
GLUCOSE [4]: 169.67 mg/dL
PHOSPHORUS [4]: 10.23 mg/dL
POTASSIUM [4]: 6.3 MEQ/L
SODIUM [4]: 150.67 MEQ/L
TOTAL BILIRUBIN [4]: 0.27 mg/dL
URIC ACID [4]: 0.93 mg/dL
ABSOLUTE BASOPHIL [5]: 43.3 cells/µL
ABSOLUTE EOSINOPHIL [5]: 36.7 cells/µL
ABSOLUTE LYMPHOCYTE [5]: 9260 cells/µL
ABSOLUTE MONOCYTE [5]: 340 cells/µL
BASOPHIL [5]: 0.33%
EOSINOPHIL [5]: 0.3%
ERYTHROCYTE COUNT [5]: 6.6 x10E6/uL
HEMATOCRIT [5]: 45.03%
HEMOGLOBIN [5]: 13.57 G/DL
LEUKOCYTE COUNT [5]: 12.59 x10E3/uL
MEAN CORPUSCULAR HEMOGLOBIN [5]: 20.53 pg
MEAN CORPUSCULAR HEMOGLOBIN CONCENTRATION [5]: 30.1 G/DL
MEAN CORPUSCULAR VOLUME [5]: 68.23 fL
MONOCYTE [5]: 2.7%
NEUTROPHIL [5]: 22.57%
PLATELET COUNT [5]: 1662.33 x10E3/uL
ALBUMIN [5]: 3.8 G/DL
ALKALINE PHOSPHATASE [5]: 329 u/L
ASPARTATE AMINOTRANSFERASE [5]: 76.33 u/L
BLOOD UREA NITROGEN [5]: 17.67 mg/dL
CARBON DIOXIDE [5]: 41 mmol/L
CHOLESTEROL [5]: 86.33 mg/dL
CREATINE PHOSPHOKINASE [5]: 239.67 u/L
CREATININE [5]: 0.5 mg/dL
GLUCOSE [5]: 171.33 mg/dL
PHOSPHORUS [5]: 9.77 mg/dL
POTASSIUM [5]: 5.87 MEQ/L
SODIUM [5]: 152 MEQ/L
TOTAL BILIRUBIN [5]: 0.3 mg/dL
URIC ACID [5]: 1.33 mg/dL
ABSOLUTE BASOPHIL [6]: 40 cells/µL
ABSOLUTE EOSINOPHIL [6]: 62 cells/µL

— ChEMBL document CHEMBL3885881, “DrugMatrix”
